# pEC50, pKi: −log10 of the molar value. Active and inactive are the calls of the source. No cut-off for these calls is given here.
# Legend:
# [1] = Distribution coefficient, logD between n-octonol and aqueous MOPS buffer at pH 7.4 by LC-MS analysis detection based shake flask method; assay type: physicochemical; conditions: n-octanol/aqueous MOPS buffer
# [2] = Distribution coefficient, logD between n-octonol and aqueous PBS buffer at pH 5.4 by LC-MS analysis detection based shake flask method; assay type: physicochemical; conditions: n-octanol/aqueous PBS buffer
# [3] = target: T1, Kappa-type opioid receptor (Homo sapiens, UniProt P41145); experiment: Agonist activity at kappa opioid receptor in ATP stimulated human HaCaT cells assessed as reduction in intracellular Ca2+ release at 1 uM after 45 mins by FURA-2AM dye based luminescence spectrophotometry method; assay type: functional, cell-based
# T1 sequence (P41145 whole entry): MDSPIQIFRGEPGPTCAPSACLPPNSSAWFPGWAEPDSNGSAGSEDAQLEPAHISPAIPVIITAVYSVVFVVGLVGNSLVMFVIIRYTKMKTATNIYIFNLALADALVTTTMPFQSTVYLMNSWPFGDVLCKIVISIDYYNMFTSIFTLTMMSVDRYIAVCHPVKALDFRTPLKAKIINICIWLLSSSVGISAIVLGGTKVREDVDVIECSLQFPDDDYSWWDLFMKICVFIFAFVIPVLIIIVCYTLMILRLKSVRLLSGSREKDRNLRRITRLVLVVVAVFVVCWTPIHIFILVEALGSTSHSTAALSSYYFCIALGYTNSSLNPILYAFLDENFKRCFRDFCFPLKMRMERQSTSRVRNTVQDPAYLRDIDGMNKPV
# [4] = target: T1, Kappa-type opioid receptor; experiment: Agonist activity at human kappa opioid receptor expressed in HEK-293 cells after 45 mins by [35S]GTP-gamma-S binding assay in presence of 10 uM of GDP; assay type: cell-based, HEK293
# [5] = system: CHO-K1; experiment: Selectivity index, ratio of Ki for human delta opioid receptor expressed in CHO-K1 cells to Ki for human kappa opioid receptor expressed on HEK-293 cells; assay type: cell-based
# [6] = target: Sigma non-opioid intracellular receptor 1 (Cavia porcellus) (UniProt Q60492); experiment: Displacement of [3H]-(+)-pentazocine from guinea pig Sigma1-receptor at 10 uM after 120 mins by liquid scintillation counting method
# Sequence of Sigma non-opioid intracellular receptor 1 (Cavia porcellus) (Q60492 whole entry): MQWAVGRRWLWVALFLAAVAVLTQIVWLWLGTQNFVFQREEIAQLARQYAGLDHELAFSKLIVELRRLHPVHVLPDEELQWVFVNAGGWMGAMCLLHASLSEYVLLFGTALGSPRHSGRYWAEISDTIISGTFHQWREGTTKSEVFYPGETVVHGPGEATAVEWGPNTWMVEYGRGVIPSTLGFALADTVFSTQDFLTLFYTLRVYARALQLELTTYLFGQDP
# [7] = target: T1, Kappa-type opioid receptor; experiment: Agonist activity at human kappa opioid receptor expressed in HEK-293 cells after 45 mins by [35S]GTP-gamma-S binding assay in presence of 10 uM of GDP relative to U-69,593; assay type: cell-based; conditions: HEK293
# [8] = species: Rattus norvegicus; experiment: Displacement of [3H]DTG from rat sigma2 receptor at 10 uM after 120 mins by liquid scintillation counting method
# [9] = species: Sus scrofa; experiment: Displacement of [3H]MK-801 from pig N-methyl D-aspartate receptor phencyclidine binding site at 10 uM after 150 min by liquid scintillation counting method
# [10] = target: Delta-type opioid receptor (Homo sapiens) (UniProt P41143); experiment: Displacement of [3H]deltrophine from human delta opioid receptor expressed in CHO-K1 cells at 10 uM after 150 mins by liquid scintillation counting method; assay type: cell-based
# Sequence of Delta-type opioid receptor (Homo sapiens) (P41143 whole entry): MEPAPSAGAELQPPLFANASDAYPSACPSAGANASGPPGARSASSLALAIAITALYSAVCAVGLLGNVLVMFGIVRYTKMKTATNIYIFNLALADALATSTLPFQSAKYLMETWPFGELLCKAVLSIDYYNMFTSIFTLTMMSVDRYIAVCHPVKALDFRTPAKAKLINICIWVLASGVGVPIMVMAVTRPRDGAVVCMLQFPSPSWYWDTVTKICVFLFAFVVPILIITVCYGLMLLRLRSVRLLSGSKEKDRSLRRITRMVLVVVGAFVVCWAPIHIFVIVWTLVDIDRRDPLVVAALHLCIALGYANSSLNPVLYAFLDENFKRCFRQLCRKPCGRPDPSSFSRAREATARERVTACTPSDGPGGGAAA
# [11] = target: T1, Kappa-type opioid receptor; experiment: biochemical; assay type: cell-based, HEK293
# Description: Displacement of [3H]Cl-977 from human kappa opioid receptor expressed on HEK-293 cells by liquid scintillation counting method
# [12] = system: CHO-K1; experiment: Selectivity index, ratio of Ki for human mu opioid receptor expressed in CHO-K1 cells to guinea pig kappa opioid receptor; assay type: cell-based
# [13] = target: Mu-type opioid receptor (Homo sapiens, UniProt P35372); experiment: biochemical; assay type: cell-based, CHO-K1
# Sequence of Mu-type opioid receptor (P35372 whole entry): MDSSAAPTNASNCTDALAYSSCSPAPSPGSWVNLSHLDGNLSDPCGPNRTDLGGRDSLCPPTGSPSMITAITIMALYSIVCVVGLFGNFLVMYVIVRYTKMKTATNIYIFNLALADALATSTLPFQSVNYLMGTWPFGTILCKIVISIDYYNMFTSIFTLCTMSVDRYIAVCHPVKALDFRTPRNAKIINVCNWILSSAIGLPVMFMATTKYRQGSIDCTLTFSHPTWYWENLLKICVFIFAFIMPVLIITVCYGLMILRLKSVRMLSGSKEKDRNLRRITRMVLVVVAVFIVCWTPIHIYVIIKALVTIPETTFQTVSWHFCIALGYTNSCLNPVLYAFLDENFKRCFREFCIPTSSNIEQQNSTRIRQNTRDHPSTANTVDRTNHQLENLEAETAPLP
# [14] = system: CHO-K1; experiment: Selectivity index, ratio of Ki for human mu opioid receptor expressed in CHO-K1 cells to Ki for human kappa opioid receptor expressed on HEK-293 cells; assay type: cell-based
# [15] = system: CHO-K1; experiment: Selectivity index, ratio of Ki for human delta opioid receptor expressed in CHO-K1 cells to guinea pig kappa opioid receptor; assay type: cell-based
# [16] = target: Kappa-type opioid receptor (Cavia porcellus, UniProt P41144); experiment: Displacement of [3H]U-69,593 from kappa opioid receptor in guinea pig brain membarnes by liquid scintillation counting method
# Sequence of Kappa-type opioid receptor (Cavia porcellus, UniProt P41144) (P41144 whole entry): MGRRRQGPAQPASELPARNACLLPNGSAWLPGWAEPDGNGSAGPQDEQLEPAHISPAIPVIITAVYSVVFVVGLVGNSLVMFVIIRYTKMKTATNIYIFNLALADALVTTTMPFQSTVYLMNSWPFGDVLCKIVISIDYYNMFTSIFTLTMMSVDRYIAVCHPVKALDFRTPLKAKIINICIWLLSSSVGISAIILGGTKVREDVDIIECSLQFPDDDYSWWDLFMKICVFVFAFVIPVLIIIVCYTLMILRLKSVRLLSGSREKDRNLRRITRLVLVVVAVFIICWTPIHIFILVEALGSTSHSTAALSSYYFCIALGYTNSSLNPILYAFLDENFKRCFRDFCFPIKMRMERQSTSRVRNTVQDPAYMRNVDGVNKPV
SMILES,logD [1],logD [2],inhibition [3],pEC50 [4],Ratio Ki [5],inhibition [6] [%],Intrinsic activity [7] [%],inhibition [8] [%],inhibition [9],inhibition [10] [%],pKi [11],Ratio Ki [12],pKi [13],Ratio Ki [14],Ratio Ki [15],pKi [16]
COC(=O)N1CCN(C(=O)Cc2ccc(Cl)c(Cl)c2)C2C(N3CCCC3)CCCC21 (stereo not drawn),1.29,0.39,–,–,–,–,–,–,–,–,–,–,–,–,–,–
CN(C(=O)/C=C/c1ccoc1)[C@@H]1CC[C@@]2(O)[C@H]3Cc4ccc(O)c5c4[C@@]2(CCN3CC2CC2)[C@H]1O5,–,–,40%,–,–,–,–,–,–,–,–,–,–,–,–,–
O=C(Cc1ccc(Cl)c(Cl)c1)N1CCNC2CCCC(N3CCC(O)C3)C21 (mixture of isomers),0.23,-2.47,–,–,–,–,–,–,–,–,–,–,–,–,–,–
COC(=O)N1CCN(C(=O)Cc2ccc(Cl)c(Cl)c2)C2C(N3CCC(O)C3)CCCC21 (mixture of isomers),1.31,0.04,Active,7.10,–,–,–,–,–,–,–,–,–,–,–,–
O=C(Cc1ccc(Cl)c(Cl)c1)N1CCN(Cc2cccnc2)C2CCCC(N3CCC(O)C3)C21 (mixture of isomers),1.26,-0.39,Active,–,100,10,100,23,inactive,35,7.51,1000,5.46,100,1000,–
O=C(Cc1ccc(Cl)c(Cl)c1)N1CCN(Cc2cccnc2)C2CCCC(N3CCCC3)C21 (racemic),1.1,-0.45,Active,–,100,20,100,1,inactive,40,7.66,> 10000,5.61,100,> 10000,9.89

# From ChEMBL document CHEMBL3785048, “Effects of polar receptor agonists designed for the periphery on ATP-induced Ca2+release from keratinocytes” (Medchemcomm, 2016)
